Results published in article doi:10.1101/2020.03.05.979567v1 (biorxiv, 2020).

Experiments:
[1] = biological target: T1, recombinant mouse Nape-pld (Mus musculus, UniProt Q8BH82); assay: PED-A1 hydrolysis, fluorescence, initial rate; format: biochemical
T1 sequence (Q8BH82 1-396): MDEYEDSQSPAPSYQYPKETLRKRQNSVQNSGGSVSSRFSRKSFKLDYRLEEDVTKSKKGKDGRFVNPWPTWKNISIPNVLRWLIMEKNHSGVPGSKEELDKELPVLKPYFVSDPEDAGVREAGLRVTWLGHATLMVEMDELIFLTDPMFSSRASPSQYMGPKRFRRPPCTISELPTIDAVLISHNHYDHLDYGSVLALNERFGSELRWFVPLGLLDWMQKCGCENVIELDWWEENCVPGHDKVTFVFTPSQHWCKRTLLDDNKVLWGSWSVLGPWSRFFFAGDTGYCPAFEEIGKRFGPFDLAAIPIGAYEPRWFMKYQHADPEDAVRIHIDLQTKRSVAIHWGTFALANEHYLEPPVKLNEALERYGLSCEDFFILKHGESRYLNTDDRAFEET

[2] = biological target: NAPE-PLD (endogenous, HEK293 cells) (Homo sapiens, UniProt Q6IQ20); assay: PED-A1 hydrolysis in intact HEK293 cells, fluorescence; format: cell-based; details: 30 min preincubation, 3.5 μM PED-A1
[3] = biological target: T2, Streptomyces chromofuscus phospholipase D (ScPld) (Streptomyces chromofuscus, UniProt Q8KRU5); assay: PED-A1 hydrolysis, fluorescence; format: biochemical
T2 sequence (Q8KRU5 47-556): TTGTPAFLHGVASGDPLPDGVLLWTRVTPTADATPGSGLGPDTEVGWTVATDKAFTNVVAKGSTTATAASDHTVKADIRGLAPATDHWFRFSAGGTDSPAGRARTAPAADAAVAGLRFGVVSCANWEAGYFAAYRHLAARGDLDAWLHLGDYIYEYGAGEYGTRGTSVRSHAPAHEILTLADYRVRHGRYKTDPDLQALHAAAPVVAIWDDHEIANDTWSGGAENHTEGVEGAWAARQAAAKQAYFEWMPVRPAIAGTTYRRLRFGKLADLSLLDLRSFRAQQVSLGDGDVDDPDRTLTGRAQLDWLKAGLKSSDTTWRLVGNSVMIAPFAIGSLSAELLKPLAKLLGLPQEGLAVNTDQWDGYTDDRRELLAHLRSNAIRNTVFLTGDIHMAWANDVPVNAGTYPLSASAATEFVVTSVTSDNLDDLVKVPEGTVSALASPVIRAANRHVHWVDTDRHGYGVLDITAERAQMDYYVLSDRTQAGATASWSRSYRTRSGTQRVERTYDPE

[4] = biological target: T1, recombinant mouse Nape-pld; assay: biochemical
[5] = biological target: T1, recombinant mouse Nape-pld; assay: PED-A1 hydrolysis kinetics, fluorescence; format: biochemical
[6] = biological target: T1, recombinant mouse Nape-pld; assay: biochemical; remark: listed apart in the source
[7] = biological target: T1, recombinant mouse Nape-pld; assay: biochemical; remark: listed apart in the source

Chain of NAPE-PLD (endogenous, HEK293 cells) (Q6IQ20 whole entry): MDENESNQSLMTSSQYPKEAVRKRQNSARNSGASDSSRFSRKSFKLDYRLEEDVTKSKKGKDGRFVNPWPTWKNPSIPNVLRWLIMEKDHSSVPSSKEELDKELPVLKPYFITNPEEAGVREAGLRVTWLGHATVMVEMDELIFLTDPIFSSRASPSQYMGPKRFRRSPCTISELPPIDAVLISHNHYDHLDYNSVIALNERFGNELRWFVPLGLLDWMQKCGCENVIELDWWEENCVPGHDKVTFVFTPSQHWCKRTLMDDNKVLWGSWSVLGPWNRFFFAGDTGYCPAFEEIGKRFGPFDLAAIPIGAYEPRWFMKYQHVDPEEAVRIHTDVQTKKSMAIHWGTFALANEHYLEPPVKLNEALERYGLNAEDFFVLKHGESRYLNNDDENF

SMILES	IC50 [1] [µM]	IC50 [4] [µM]	also measured
Oc1c(Cl)cc(Cl)c(Cl)c1Cc1c(O)c(Cl)cc(Cl)c1Cl [Inh 1, hexachlorophene]	~2	1.6	IC50 [2]: 9.8 µM; IC50 [3]: 149 µM; Ki [5]: ~2 µM
Oc1c(Cl)cc(Cl)cc1Sc1cc(Cl)cc(Cl)c1O [Inh 2, bithionol]	–	2.1	IC50 [2]: 10.7 µM; IC50 [3]: > 200 µM
COc1c(O)cc2oc3cc(O)c(CC=C(C)C)c(O)c3c(=O)c2c1CC=C(C)C [Inh 3, Mangostin]	–	2.8	–
O=c1c2ccccc2[se]n1-c1ccccc1 [Inh 4, ebselen]	–	2.8	–
CC1=C(O)C(=O)C=C2C1=CC=C1[C@@]2(C)CC[C@@]2(C)[C@@H]3C[C@](C)(C(=O)O)CC[C@]3(C)CC[C@]12C [Inh 5, Tripterine]	–	3	–
Cc1cc2c(C(C)C)c(O)c(O)c(C=O)c2c(O)c1-c1c(C)cc2c(C(C)C)c(O)c(O)c(C=O)c2c1O [Inh 6, Gossypol]	–	6.9	–
CCCCC(=O)O[C@H]1CC[C@H]2[C@@H]3CCc4cc(O)ccc4[C@H]3CC[C@]12C [Inh 7, estradiol valerate]	7.8	–	–
CC(C)=CCC[C@]1(C)C=Cc2c(O)c3c(c(CC=C(C)C)c2O1)O[C@]12C(=C[C@@H]4C[C@H]1C(C)(C)O[C@@]2(C/C=C(/C)C(=O)O)C4=O)C3=O [Inh 9, Gambogic acid]	–	9.9	–
[H]/N=C(\N/C(=N/[H])NCCCCCCNC(=N)NC(=N)Nc1ccc(Cl)cc1)Nc1ccc(Cl)cc1 [Inh 10, Chlorhexidine]	–	10.4	–
COc1ccc(C(=O)c2ccccc2O)c(O)c1 [Inh 14, dioxybenzone]	–	19.1	–
Clc1cc(Cl)c(Cl)c(Cc2cc(Cl)cc(Cl)c2Cl)c1 [Inh 15, CAS 2888-15-5]	–	–	IC50 [6]: > 200 µM
COc1ccc(Cl)cc1Cc1cc(Cl)ccc1OC [Inh 19, CAS 7569-57-5]	–	–	IC50 [6]: > 200 µM
CC(C)(c1cc(Cl)c(O)c(Cl)c1)c1cc(Cl)c(O)c(Cl)c1 [Inh 24, CAS 79-95-8]	64.7	–	–
Oc1cc(Cl)ccc1Oc1ccc(Cl)cc1Cl [Inh 25, triclosan]	62.9	–	–
O=C(Nc1ccc(Cl)cc1)Nc1ccc(Cl)c(Cl)c1 [Inh 26, triclocarban]	–	–	IC50 [7]: > 200 µM

Further lines, with some results ahead:

IC50 [1] [µM]	IC50 [4] [µM]	SMILES	also measured
23.2	–	Oc1ccc(Cl)cc1Cc1cc(Cl)ccc1O [Inh 17, Dichlorophen]	–
26.8	–	Oc1ccc(Cl)cc1Sc1cc(Cl)ccc1O [Inh 18, Fenticlor]	–
26.5	–	Oc1c(Cl)cc(Cl)cc1Cc1cc(Cl)cc(Cl)c1O [Inh 21, CAS 1940-43-8]	–
5	–	Oc1c(Br)cc(Cl)cc1Cc1cc(Cl)cc(Br)c1O [Inh 22, CAS 15435-29-7]	–
2.8	–	Oc1c(Cl)cc(Cl)cc1C(c1cc(Cl)cc(Cl)c1O)C(Cl)(Cl)Cl [Inh 23, CAS 92167-59-4]	–
